Laboratory results: patent US6930314B2, “Light detection device” (Molecular Devices Corporation, priority 2000, dated 2005)

System: CHO ml cells
Assay: Calcium flux assay
Type: cell-based
Conditions: CHO ml cells in 384-well microplate loaded with fluorescent calcium ion indicator; carbachol 10 nM, 100 nM, 10 μM; single selected well, frames about two seconds apart
Procedure: This example, illustrated in FIGS. 6 and 7, describes calcium flux assays conducted using an apparatus constructed in accordance with aspects of the invention.
Cultured CHO ml cells were grown overnight in a 384-well microplate, then loaded with a cell-permeant form of a fluorescent calcium ion indicator for 1 hour. […] The manual addition of carbachol (a calcium flux stimulant) in 10 nM, 100 nM, and 10 μM concentrations was used to mimic small, medium, and large sustained responses.
The figure records the average light intensity in a single selected well as a function of frame number (each frame taken approximately two seconds apart), where the selected well was one to which carbachol was added.
Here, no sustained increase in signal strength was observed, although there were small fluctuations due to shot-to-shot variations in illumination laser intensity.

C[N+](C)(C)CCOC(N)=O [carbachol]
fluorescence signal (calcium flux response) after addition of carbachol: rapid increase in the fluorescence signal over the first few frames, with a slow decay
